Laboratory results reported in ChEMBL document CHEMBL4825731, “[11C]CHDI-626, a PET Tracer Candidate for Imaging Mutant Huntingtin Aggregates with Reduced Binding to AD Pathological Proteins” (J Med Chem, 2021).

Legend:
[1] = Displacement of [3]10-methoxy-N-(pyridin-3-yl-7-thia-2,5-diazatricyclo(6.4.0.0 2.6)-dodeca-1(12),3,5,8,10-pentaene-4-carboxamide from polyglutamine Q46 aggregate (unknown origin) by radio ligand binding assay; design: species or system Homo sapiens
[2] = Fraction unbound in mouse brain homogenate at 5 uM incubated for 6 hrs shaking at 250 rpm by LC-MS/MS analysis; format: ADME, tissue-based
[3] = target: Amyloid-beta precursor protein (Homo sapiens) (UniProt P05067); test: Displacement of [3]10-methoxy-N-(pyridin-3-yl-7-thia-2,5-diazatricyclo(6.4.0.0 2.6)-dodeca-1(12),3,5,8,10-pentaene-4-carboxamide from human Amyloid beta plaques using AD postmortem patient brain homogenates at 1 uM incubated for 2 hr by radio ligand binding assay relative to control; format: tissue-based
Sequence of Amyloid-beta precursor protein (Homo sapiens) (P05067 whole entry): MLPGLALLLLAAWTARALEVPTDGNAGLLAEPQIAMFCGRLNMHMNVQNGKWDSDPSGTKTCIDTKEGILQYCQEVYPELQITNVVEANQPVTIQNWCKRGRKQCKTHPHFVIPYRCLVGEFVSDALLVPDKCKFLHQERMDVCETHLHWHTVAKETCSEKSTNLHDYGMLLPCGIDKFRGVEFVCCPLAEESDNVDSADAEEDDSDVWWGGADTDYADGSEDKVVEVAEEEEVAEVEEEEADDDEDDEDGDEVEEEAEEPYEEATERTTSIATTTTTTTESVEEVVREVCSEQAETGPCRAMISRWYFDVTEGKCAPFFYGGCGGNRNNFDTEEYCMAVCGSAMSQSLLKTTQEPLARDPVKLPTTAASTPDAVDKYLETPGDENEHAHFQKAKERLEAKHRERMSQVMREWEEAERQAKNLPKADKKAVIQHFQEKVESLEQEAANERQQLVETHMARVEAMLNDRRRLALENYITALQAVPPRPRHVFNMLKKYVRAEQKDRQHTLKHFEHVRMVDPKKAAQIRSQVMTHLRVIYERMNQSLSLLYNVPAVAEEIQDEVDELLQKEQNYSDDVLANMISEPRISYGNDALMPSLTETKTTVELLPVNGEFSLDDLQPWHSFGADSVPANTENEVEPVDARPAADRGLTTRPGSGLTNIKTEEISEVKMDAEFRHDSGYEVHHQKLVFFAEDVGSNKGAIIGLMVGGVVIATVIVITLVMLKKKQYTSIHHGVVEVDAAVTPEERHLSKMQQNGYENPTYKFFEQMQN

[4] = system: MDR1; test: Efflux ratio of apparent permeability in MDCK cells expressing human MDR1; format: ADME, cell-based, Canis lupus familiaris; conditions: dog
[5] = system: BCRP; test: Efflux ratio of apparent permeability in MDCK cells expressing human BCRP; format: ADME, cell-based, Canis lupus familiaris; conditions: dog
[6] = AUC in Cynomolgus macaque brain to plasma ratio treated bolus injected into sural vein for 5 secs measured 30 to 120 mins by PET analysis; format: ADME, organism-based, Macaca fascicularis; conditions: cynomolgus monkey, iv, time 30-120 min
[7] = Unbound brain-to-plasma concentration ratio in C57BL/6 mouse at 0.05 mg/kg, iv; format: ADME, organism-based; conditions: brain and plasma, read-out: K(p,uu,brain)
[8] = AUC (5 to 60 min) in C57BL/6 mouse brain at 0.05 mg/kg, iv; format: ADME, organism-based; design: dose 0.05 mg/kg
[9] = Fraction unbound in plasma concentration ratio in C57BL/6 mouse at 0.05 mg/kg, iv; format: ADME, organism-based
[10] = Cmax in Cynomolgus macaque brain treated bolus injected into sural vein for 5 secs measured 30 to 120 mins by PET analysis; format: ADME, organism-based, Macaca fascicularis; design: time upper 120 min, time lower 30 min; conditions: cynomolgus monkey, in vivo, iv
[11] = Stability in mouse plasma assessed as half life; format: ADME, cell-free
[12] = Apparent permeability in MDCK cells; format: ADME, cell-based, Canis lupus familiaris; conditions: dog
[13] = Fraction unbound in brain concentration ratio in C57BL/6 mouse at 0.05 mg/kg, iv; format: ADME, organism-based
[14] = Half life in mouse liver microsomes; format: ADME, Microsome
[15] = Half life in human liver microsomes; format: ADME, Microsome
[16] = Tmax in Cynomolgus macaque brain treated bolus injected into sural vein for 5 secs by PET analysis; format: ADME, organism-based, Macaca fascicularis; conditions: cynomolgus monkey, in vivo, iv, 5 s; time 5 sec
[17] = Tmax in Rhesus macaque brain treated bolus injected into sural vein for 5 secs measured 30 to 120 mins by PET analysis; format: ADME, organism-based, Macaca mulatta; conditions: rhesus monkey, in vivo, iv; time 30-120 min
[18] = Half life in cynomolgus monkey liver microsomes; format: ADME, Macaca fascicularis, Microsome
[19] = Stability in human plasma assessed as half life; format: ADME, cell-free
[20] = Cmax in Rhesus macaque brain treated bolus injected into sural vein for 5 secs measured 30 to 120 mins by PET analysis; format: ADME, organism-based, Macaca mulatta; design: time upper 120 min, time lower 30 min; conditions: rhesus monkey, in vivo, iv
[21] = AUC in Rhesus macaque brain to plasma ratio treated bolus injected into sural vein for 5 secs measured 30 to 120 mins by PET analysis; format: ADME, organism-based, Macaca mulatta; conditions: rhesus monkey, iv, time 30-120 min
[22] = Cmax in C57BL/6 mouse brain at 0.05 mg/kg, iv; format: ADME, organism-based; design: route intravenous, dose 0.05 mg/kg
[23] = Drug metabolism in C57BL/6 mouse brain assessed as oxidative metabolite M2a at 0.05 mg/kg, iv; format: ADME, organism-based; conditions: in vivo
[24] = Drug metabolism in C57BL/6 mouse plasma assessed as oxidative metabolite M2a at 0.05 mg/kg, iv; format: ADME, organism-based; conditions: in vivo

Row | Structure (SMILES) | IC50 ([1]; read-out: IC50) | fraction unbound at 6 h, 5 µM [2] | Activity [3] | also measured
1 | COc1ccc2c(c1)sc1nc(C(=O)Nc3cccnc3)cn12 | 4.3 nM | 0.03 | 100% | 
2 | COc1ccc(NC(=O)c2ccc3c(n2)oc2ccncc23)cn1 | 3.3 nM | 0.06 |  | 
3 | COc1ccc(NC(=O)c2ccc3c4cnccc4n(C(=O)OC(C)(C)C)c3n2)cn1 | 2.8 nM | 0.03 |  | efflux ratio [4]: 2; efflux ratio [5]: > 7.3
4 | COc1ccc(NC(=O)c2ccnc(Nc3ccncc3)n2)cn1 | 5.3 nM | 0.02 |  | 
5 | COc1ccc(COc2ccn3c(n2)nc2ccccc23)cn1 | 54 nM | 0.08 |  | efflux ratio [4]: 0.5; efflux ratio [5]: 0.5
6 | COc1ccc2c(c1)nc1nc(C(=O)NC3CCCc4cccnc43)ccn12 (configuration not stated) | 48 nM | 0.17 | 8% | 
7 | COc1cncc(NC(=O)c2ccn3c(n2)nc2cc(OC)ccc23)c1 | 2.1 nM | 0.15 | 5% | 
8 | COc1ccc(NC(=O)c2ccc3c(c2)nc2ncccn23)cn1 | 69 nM | 0.38 |  | efflux ratio [4]: 0.6; efflux ratio [5]: 25
9 | CNc1ccc(-c2cn3c(n2)sc2cc(OCCF)ccc23)cc1 | 5.7 nM |  | 130% | 
10 | FCCC1CCN(c2ccn3c(n2)nc2ccccc23)CC1 | > 333 nM | 0.12 | 34% | 
11 | C#CCCCNC(=O)c1ccn2c(n1)nc1cc(OC)ccc12 | 72 nM | 0.22 |  | 
12 | COc1ccc(COc2ccn3c(n2)nc2ccccc23)nc1 | 48 nM |  |  | efflux ratio [4]: 0.5; efflux ratio [5]: 1.3
13 | COc1ccc2c(c1)nc1nc(C(=O)N3Cc4cccnc4C3)ccn12 | 4.1 nM | 0.32 | 0% | 
14 | COc1ccc2c(c1)nc1nc(C(=O)Nc3cnc(C)c(C)c3)ccn12 |  |  |  | IC50 [1]: Nd(Insoluble); Fu ([2]; 6 h, 5 µM): Nd(Insoluble)
15 | COc1ccc(NC(=O)c2ccc3c4cnccc4n(C)c3n2)cn1 | 1.3 nM | 0.04 |  | 
16 | COc1ccc(COc2ccc3oc(-c4ccc(=O)n(C)n4)nc3c2)nc1 |  |  |  | AUC(0-t) [8]: 65 nM·h; Cmax [22]: 124 nM
17 | COc1ccc2c(c1)nc1nc(C(=O)NC3CC3)ccn12 | 351 nM | 0.24 |  | 
18 | COc1ccc2c(c1)nc1nc(C(=O)Nc3ccc(OC)nc3)ccn12 | 2.3 nM | 0.1 | 13% | 
19 | COc1ccc2c(c1)nc1nc(C(=O)N3CC(N4CCOCC4)C3)ccn12 | 401 nM |  |  | 

Continued, in another order:

Row | IC50 ([1]; read-out: IC50) | fraction unbound at 6 h, 5 µM [2] | Activity [3] | Structure (SMILES) | also measured
20 | 9.2 nM | 0.23 | 30% | COc1ccc2c(c1)nc1nc(C(=O)Nc3ccncn3)ccn12 | 
21 | 45 nM | 0.64 |  | O=C(Nc1ccc(=O)[nH]c1)c1ccn2c(n1)nc1ccccc12 | 
22 | 26 nM | 0.46 |  | Cn1cc(NC(=O)c2ccn3c(n2)nc2ccccc23)ccc1=O | 
23 | 1.6 nM | 0.16 |  | COc1ccc(C(=O)Nc2ccn3c(n2)nc2ccccc23)cn1 | efflux ratio [4]: 0.5; efflux ratio [5]: 2.1
24 | 1.4 nM | 0.02 | 21% | Cc1cc(NC(=O)c2ccn3c(n2)nc2ccccc23)cnc1C | 
25 | 5.8 nM | 0.1 | 21% | COc1cc(NC(=O)c2ccn3c(n2)nc2ccccc23)cnc1OC | 
26 | 17 nM | 0.54 |  | COc1ccc2c(c1)nc1nc(C(=O)Nc3cccnn3)ccn12 | 
27 | 8.4 nM | 0.29 | 24% | O=C(Nc1ccccn1)c1ccn2c(n1)nc1ccccc12 | 
28 | 6.8 nM | 0.18 | 41% | COc1ccc2c(c1)nc1nc(C(=O)Nc3ccccn3)ccn12 | 
29 | 16 nM | 0.37 | 12% | Cn1nc(NC(=O)c2ccn3c(n2)nc2ccccc23)ccc1=O | 
30 | 3.6 nM | 0.11 |  | [11CH3]Oc1ccc(NC(=O)c2ccn3c(n2)nc2ccccc23)cn1 | Ratio AUC [6]: 0.3; Kp uu [7]: 0.9; AUC(0-t) [8]: 3 nM·h; fraction unbound [9]: 0.09; Cmax [10]: 3.5 %ID; half-life [11]: 100 min; Papp [12]: 9.4 ×10⁻⁶ cm/s; fraction unbound [13]: 0.11; half-life [14]: 8 min; half-life [15]: 8 min; efflux ratio [4]: 0.5; Tmax [16]: 0.8 min; Tmax [17]: 0.8 min; half-life [18]: 1 min; half-life [19]: 127 min; Cmax [20]: 3.2 %ID; Ratio AUC [21]: 0.9; efflux ratio [5]: 0.9; Cmax [22]: 21 nM
31 | > 1000 nM | 0.51 |  | CN(C(=O)c1ccn2c(n1)nc1ccccc12)c1ccc(=O)[nH]c1 | 
32 | 302 nM | 0.7 |  | Cn1cc(NC(=O)c2ccn3c(n2)nc2ccccc23)cnc1=O | 
33 | 10 nM | 0.15 | 17% | COc1ccc2c(c1)nc1nc(C(=O)Nc3cccnc3)ccn12 | 
34 | 12 nM | 0.25 |  | COc1ccc2c(c1)nc1nc(C(=O)Nc3ccc(=O)n(C)n3)ccn12 | 
35 | 39 nM | 0.21 | -12% | O=C(Nc1cccnc1)c1ccn2c(n1)nc1ccccc12 | 
36 | 3.5 nM | 0.21 | 25% | COc1cncc(NC(=O)c2ccn3c(n2)nc2ccccc23)c1 | Kp uu [7]: 1; Drug metabolism [23]: Metabolite_Detected; AUC(0-t) [8]: 2 nM·h; fraction unbound [9]: 0.07; half-life [11]: 215 min; Papp [12]: 12.5 ×10⁻⁶ cm/s; fraction unbound [13]: 0.21; Drug metabolism [24]: Metabolite_Detected; half-life [14]: 4 min; half-life [15]: 12 min; efflux ratio [4]: 0.8; half-life [18]: 4 min; half-life [19]: > 480 min; efflux ratio [5]: 2.7; Cmax [22]: 17 nM
37 | 2.8 nM | 0.03 | -29% | COc1ncc(NC(=O)c2ccn3c(n2)nc2ccccc23)cc1C | 
